According to patent US20100272711A1, “COMPOSITIONS AND METHODS FOR THE TREATMENT AND PREVENTION OF CARDIOVASCULAR DISEASES” (THOMAS JEFFERSON UNIVERSITY, priority 2007, published 2010):

Legend:
[1] = system: animal models of ischemia/reperfusion injury; conditions: with a sodium-hydrogen exchanger inhibitor at reperfusion; or just before reperfusion in animal models; cited from earlier work
[2] = system: cardiac A1-AR expression (tTA transactivation); assay: Doxycycline-regulated A1-AR transgene expression (tet-off system) in A1-TG mice; format: in vivo, mouse
From the text: Transgenic mouse generation. The human A1-AR cDNA was cloned into a cardiac-specific and inducible controlled vector (TREMHC)^64 composed of a modified mouse α-myosin heavy chain minimal promoter fused with nucleotide binding sites for tetracyline transactivating factor (tTA).^33 A1-AR transgenic mice, engineered on a FVB background (PolyGene, Switzerland), were crossed with mice that expressed tTA in the heart (MHC-tTA) (FIG. 1A). In this “tet-off” inducible system, the stable tetracycline analog, doxycycline (DOX), inhibits tTA transactivation and was administered to mice at 300 mg/kg of mouse diet (Bio-Serv, NJ). Survival studies were performed using both male and female mice and found no statistical significant differences. Therefore, only male mice were used for subsequent studies. All protocols were approved by the Institutional Animal Care and Use Committee of Thomas Jefferson University.
Doxycyline-regulated A1-AR expression. The stable tetracycline analog, doxycycline (DOX), inhibits tTA transactivation. The inventors determined a minimal dose of DOX (300 mg/kg of mouse diets) that attenuated A1-AR expression, which, in turn prevented cardiomyopathy. […] To generate inducible A1-AR transgenic mice (A1-TGInd), DOX was removed when mice reached three-weeks of age. […] At six weeks of age, A1-AR protein expression in A1-TGCcon and A1-TGInd was identical (FIGS. 2B and C). […]

[3] = system: WT mice; assay: Effect of DOX diet on heart size and function of wild type mice; format: in vivo, mouse; conditions: 300 mg/kg diet; 12-week-old mice; FIGS. 9 and 10
Experimental: 7-10 12-weeks old mice from each group were measured. No significance was detected at p-value setting of P<0.05.
Echocardiography were performed on 7-10 12-weeks-old male mice. No significance was detected at p-value setting of P<0.05.
Echocardiography and Electrocardiogram (ECG). Echocardiographic studies on A1-AR transgenic mice were performed using an ultrasonographic system (ACUSON Sequoia C256) as described.^34,35 […] Non-transgenic littermates served as controls and unless otherwise noted, all mice were male. Mice were anesthetized with 2.5% Avertin (10 μl/g body weight, IP, Aldrich Chemical Co) and placed in the supine position. A 14-MHz transducer was applied to the left hemithorax. Two-dimensional targeted M-mode imaging was obtained from the short-axis view at the level of the greatest left ventricular dimension at baseline. […] End diastole was determined at the maximal left ventricular diastolic dimension, and end systole was taken at the peak of posterior-wall motion. […] ECG was recorded for 2 minutes and analyzed using Char 5 software (Adinstruments). […]

[4] = system: wild-type and TNF 1.6 mice; assay: Left ventricular hemodynamics: chronotropic and functional responsiveness to adenosine analogue or AR agonists; format: in vivo, mouse
Experimental: FIGS. 16A-16B show the cardiac response of wild type (WT) and TNF 1.6 transgenic mice to an adenosine analogue or AR agonists. Under anesthetization, a 1.4 F micromanometer catheter (Millar Instruments) was inserted into the left ventricle through the right carotid artery. Chronotropic and functional responsiveness to adenosine analogue or AR agonists were recorded. […] Values are mean±SEM (n=5). *P<0.05 vs. age-matched WT. The graph measured the slope (in vivo chronotropic responsiveness) from baseline to 10 minutes after drug administration in wild-type and TNF 1.6 mice. Values were mean±SEM (n=5) and compared using ANOVA General Linear Model with repeated measures. *P<0.05 vs. age-matched WT in slope change. The graph in FIG. 16B measured the slope (arterial pressure or cardiac contractility) from baseline to 10 minutes after drug administration in wild-type and TNF1.6 mice. Values were mean±SEM (n=5) and compared using ANOVA General Linear Model with repeated measures. *P<0.05 vs. age-matched WT in slope change. Left Ventricular Hemodynamics Measurement. After anesthetization with 2.5% Avertin (10 μl/g body weight, IP, Aldrich Chemical Co), mice were placed in the supine position. A 1.4 F micromanometer catheter (Millar Instruments) was inserted into the left ventricle through the right carotid artery.^64,65 Left ventricular pressure and heart rate were then recorded at baseline and 10 minutes after injection of CPA (0.1 mg/kg body weight, IP, Sigma-Aldrich Co). A1 receptor-specific functional response. To determine whether the changes in A1-AR levels had functional significance in TNF 1.6 mice, the inventors determined the chronotropic response to the selective A1-AR agonist, 2-chloro-N^6-cyclopentanyladenosine (CPA).

SMILES: CCNC(=O)[C@H]1CC(n2cnc3c(N[C@H](CC)Cc4sccc4Cl)ccnc32)[C@H](O)[C@@H]1O (relative stereo) [AMP 579, [1S-[1α,2β,3β,4α(S*)]]-4-[7-[[3-chloro-2-thienyl)methyl]propyl]amino]-3H-imidazo[4,5-b]pyridin-3-yl]-N-ethyl-2,3-dihydroxycyclopentanecarboxamide]
- cardioprotection [1]: cardioprotective

SMILES: C[C@H]1c2cccc(O)c2C(=O)C2=C(O)[C@]3(O)C(=O)C(C(N)=O)=C(O)[C@@H](N(C)C)[C@@H]3[C@@H](O)[C@@H]21 [DOX, doxycycline]
- minimal dose that attenuated A1-AR expression ([2]; in turn prevented cardiomyopathy): 300 mg/kg of mouse diets
- transgene suppressed ([2]; sub-optimum DOX dose): 80%
- WT mouse heart size or function [3]: did not affect WT mouse heart size or function

SMILES: OC[C@H]1O[C@@H](n2cnc3c(NC4CCCC4)nc(Cl)nc32)[C@H](O)[C@@H]1O [CPA, 2-chloro-N^6-cyclopentanyladenosine]
- arterial pressure and cardiac contractility after injection ([4]; baseline to 10 minutes after CPA injection, FIG. 16B): only slightly increased arterial pressure and cardiac contractility
- chronotropic response in TNF 1.6 mice compared with age- and gender-matched wild-type controls ([4]; baseline to 10 minutes after drug administration, n=5): far more robust decrease in heart rate
- heart rate (chronotropic response) ([4]; wild-type mice, baseline to 10 minutes after injection, CPA 0.1 mg/kg IP): effectively decreased heart rate
